Data on nine molecules can be found in publication PMC4712254 (Clinical Pharmacokinetics, 2015).

Marks after values point to notes of the source that are not given here.

Data set [1] can be described thus: Plasma pharmacokinetics of probe drugs and metabolites in healthy male subjects.
The conditions of data set [2]: both CYP2B6 probe drugs; cited from earlier work.
The test system of data set [3] is CYP2B6. The experiment in a line: Basel cocktail phenotyping of CYP2B6. The format is in vivo, human. The note with it: plasma, geometric mean (90 % CI).
Data set [4] relates to CYP2C9. Kind of data set: Basel cocktail phenotyping of CYP2C9. The format is in vivo, human. As to conditions: for [los]/[E3174]: plasma, geometric mean (90 % CI); for metabolic ratios at 6 h: the other subjects.
Data set [5] deals with p-glycoprotein (pgp). The note with it: cited from earlier work.
The test system of data set [6] is CYP2D6. The experiment in a line: Basel cocktail phenotyping of CYP2D6. The format is in vivo, human. As to conditions: plasma, geometric mean (90 % CI).
Data set [7] deals with CYP3A4. The experiment in a line: Basel cocktail phenotyping of CYP3A4. The data set is classed as in vivo, human. As to conditions: plasma, geometric mean (90 % CI).
The subject of data set [8] is CYP2C19. Kind of data set: Basel cocktail phenotyping of CYP2C19. The format is in vivo, human. As to conditions: plasma, geometric mean (90 % CI).
Data set [9] deals with CYP2B6. The note with it: cited from earlier work.
The test system of data set [10] is CYP1A2. As to conditions: cited from earlier work.
For data set [11], the system named is CYP2B6. The note with it: cited from earlier work. This is another data set of the same source.
The test system of data set [12] is CYP2C19. As to conditions: cited from earlier work.
Where [13] appears, read: 4 h, Cocktail + inducer (rifampicin).
Where [14] appears, read: 6 h, Cocktail + inducer (rifampicin).
[15] abbreviates: 8 h, Cocktail + inducer (rifampicin).
The mark [16] stands for this setting: 2 h, Cocktail + inducer (rifampicin).

As to `O=C1Nc2c(O)cc(Cl)cc2[C@@](C#CC2(O)CC2)(C(F)(F)F)O1` [8,14-dihydroxy-efavirenz], the “plasma concentrations after deglucuronidation” value in data set [1] (after deglucuronidation) is “lower than 6 ng/mL”. Besides, the plasma concentrations result in data set [1] (without deglucuronidation) is recorded as “below the limit of quantification”.
`CC(NC(C)(C)C)C(=O)c1cccc(Cl)c1` (stereo not shown) [bupropion]: in data set [2], the half-life (in general, how long it takes for the measured level to halve) is 50 to 70 h.
With `O=C1Nc2ccc(Cl)cc2[C@@](C#CC2CC2)(C(F)(F)F)O1` [efavirenz], the “[efa]/[OH-efa]” value in data set [3] (setting [13]) was 19.3 (17.9–21.3)***^a; in data set [3] (4 h, Cocktail + inhibitors), 84.1 (71.9–115.0)***; in data set [3] (4 h, Cocktail alone (baseline)), 38.7 (34.8–48.5); in data set [3] (setting [14]), 23.1 (21.3–25.7)***^a; in data set [3] (6 h, Cocktail + inhibitors), 77.6 (69.3–94.2)***^a; in data set [3] (6 h, Cocktail alone (baseline)), 43.7 (39.5–51.3). Also, the “[efa]/[OH-efa]” value is on record as 27.7 (26.0–30.8)***^a in [3] (setting [15]); 88.7 (79.7–108.0)*** in [3] (8 h, Cocktail + inhibitors); 53.2 (47.8–62.6) in data set [3] (8 h, Cocktail alone (baseline)).
Regarding `CCCCc1nc(Cl)c(CO)n1Cc1ccc(-c2ccccc2-c2nn[nH]n2)cc1` [losartan], the “[los]/[E3174]” value in [4] (setting [16]) is 0.44 (0.37–0.96)**^b; in [4] (2 h, Cocktail + inhibitors), 3.39 (2.66–4.62)ns^f; in data set [4] (2 h, Cocktail alone (baseline)), 1.18 (1.17–2.99); in data set [4] (setting [13]), 0.08 (0.06–0.16)**^a; in data set [4] (4 h, Cocktail + inhibitors) it was 1.17 (1.03–2.09)***; in data set [4] (4 h, Cocktail alone (baseline)) it was 0.17 (0.14–0.37). The “[los]/[E3174]” value is given as 0.06 (0.04–0.12)***^c in data set [4] (setting [14]); 0.55 (0.47–1.01)***^a in data set [4] (6 h, Cocktail + inhibitors); 0.10 (0.08–0.19) in [4] (6 h, Cocktail alone (baseline)); 0.05 (0.04–0.07) ns^b in data set [4] (setting [15]); 0.24 (0.20–0.42)*** in data set [4] (8 h, Cocktail + inhibitors); 0.05 (0.04–0.08) in [4] (8 h, Cocktail alone (baseline)). Moreover, the “metabolic ratios at 6 h” value in [4] (baseline) is on record as 0.04–0.11; in data set [4] (inhibition) it was 0.20–0.53. The “p-glycoprotein (pgp) substrate” value in data set [5] is “transported by p-glycoprotein”.
As for `COCCc1ccc(OCC(O)CNC(C)C)cc1` (stereo not shown) [metoprolol], the “[met]/[OH-met]” value in data set [6] (setting [16]) is 1.83 (1.60–2.18) nt^d; in [6] (2 h, Cocktail alone (baseline)) it was 1.93 (1.56–2.47)^e; in [6] (setting [13]) it was 2.02 (1.84–2.31) ns^a; in [6] (4 h, Cocktail + inhibitors), 6.60 (5.90–7.85)***; in data set [6] (4 h, Cocktail alone (baseline)) it was 2.20 (2.00–2.54); in data set [6] (setting [14]), 1.88 (1.69–2.20)*^a. The “[met]/[OH-met]” value is 8.99 (8.33–10.01)*** in data set [6] (6 h, Cocktail + inhibitors); 2.36 (2.16–2.69)^a in data set [6] (6 h, Cocktail alone (baseline)); 1.67 (1.51–1.93) ns^b in data set [6] (setting [15]); 9.90(9.06–11.39)*** in data set [6] (8 h, Cocktail + inhibitors); 2.11 (1.91–2.44) in [6] (8 h, Cocktail alone (baseline)).
For `Cc1ncc2n1-c1ccc(Cl)cc1C(c1ccccc1F)=NC2` [midazolam], the “[mid]/[OH-mid]” value in [7] (setting [16]) is 1.73 (1.54–2.11) ns^a; in [7] (2 h, Cocktail + inhibitors) it was 3.46 (3.10–4.29)***; in data set [7] (2 h, Cocktail alone (baseline)), 1.31 (1.16–1.77); in data set [7] (4 h, Cocktail alone (baseline)), 1.51 (1.33–1.97).
For `COc1ccc2[nH]c([S+]([O-])Cc3ncc(C)c(OC)c3C)nc2c1` (stereo not shown) [omeprazole], the “[ome]/[OH-ome]” value in [8] (setting [16]) is recorded as 0.25 (0.22–0.35)**^a; in data set [8] (2 h, Cocktail + inhibitors), 25.8 (22.7–33.2)***; in data set [8] (2 h, Cocktail alone (baseline)), 1.08 (0.90–1.46); in data set [8] (setting [13]), 0.18 (0.15–0.24)***^a; in data set [8] (4 h, Cocktail + inhibitors), 18.1 (16.0–22.5)***; in [8] (4 h, Cocktail alone (baseline)), 0.49 (0.38–0.86). The “[ome]/[OH-ome]” value in [8] (6 h, Cocktail + inhibitors) is 14.6 (12.5–18.8)nt^a; in [8] (6 h, Cocktail alone (baseline)), 0.28 (0.18–0.55)^b.
In the case of `Fc1ccc([C@@H]2CCNC[C@H]2COc2ccc3c(c2)OCO3)cc1` [paroxetine], in data set [9], the “CYP2B6 inhibition in vitro” value was “CYP2B6 inhibitor in vitro”.
Regarding `CO[C@H]1/C=C/O[C@@]2(C)Oc3c(C)c(O)c4c(O)c(c(/C=N/N5CCN(C)CC5)c(O)c4c3C2=O)NC(=O)/C(C)=C\C=C\[C@H](C)[C@H](O)[C@@H](C)[C@@H](O)[C@@H](C)[C@H](OC(C)=O)[C@@H]1C` [rifampicin], in [10], the “in vivo inducer class, CYP1A2” value is on record as “weak inducer”. Also, the “in vivo inducer class, CYP2B6” value in [11] is listed as “moderate inducer (50–80 % decrease in AUC)”. In data set [1] (subject excluded from induction data, higher), the “concentrations in one subject compared with the other subjects” value is “approximately 100 fold”. The “in vivo inducer class, 2C19” value in data set [12] was “moderate inducer (50–80 % decrease in AUC)”.
